Measured values as given in article PMC6290913 (Journal of medicinal chemistry, 2018).

Experiments:
[1] = target: human ENaCs (α, β, and γ subunits) (Homo sapiens, UniProt P37088+P51168+P51170); assay: ENaC inhibition assay; format: cell-based; conditions: 10 μM compound; transfected HEK-293 cells
Trypsin = assay: Chromogenic TLSP activity assay, trypsin; format: biochemical; conditions: read-out: Trypsin IC50; chromogenic enzyme inhibition assay
85 serine hydrolases = conditions: 33.3 μM to 10 nM; semiquantitative
uPA = uPA (Homo sapiens, UniProt P00749); assay: EnPlex activity-based protein profiling, uPA; conditions: 33.3 μM to 10 nM; semiquantitative
[2] = target: Mouse uPA (active mouse urokinase, HMW) (Mus musculus, UniProt P06869)
[3] = target: low molecular weight human uPA (Homo sapiens, UniProt P00749); assay: Fluorometric uPA activity assay; format: biochemical; conditions: relative to HMA 5
[4] = system: AsPC-1 human pancreatic cancer cells + human pancreatic stellate cells; assay: Orthotopic xenograft mouse model of pancreatic cancer; conditions: for liver metastases: 18 or 26 10 mg/kg ip daily for 28 days, compared to gemcitabine

Sequence of Mouse uPA (active mouse urokinase, HMW) (P06869 180-433 limits assumed): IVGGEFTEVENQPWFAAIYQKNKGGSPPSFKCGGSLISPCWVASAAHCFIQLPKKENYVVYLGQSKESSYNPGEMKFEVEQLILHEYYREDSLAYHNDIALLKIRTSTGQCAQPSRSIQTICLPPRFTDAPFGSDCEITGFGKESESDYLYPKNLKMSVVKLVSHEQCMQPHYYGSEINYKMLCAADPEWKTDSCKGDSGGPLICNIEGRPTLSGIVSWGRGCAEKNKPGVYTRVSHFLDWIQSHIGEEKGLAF
Sequence of Mouse uPA (active mouse urokinase, HMW) (P06869 21-178 partner limits assumed): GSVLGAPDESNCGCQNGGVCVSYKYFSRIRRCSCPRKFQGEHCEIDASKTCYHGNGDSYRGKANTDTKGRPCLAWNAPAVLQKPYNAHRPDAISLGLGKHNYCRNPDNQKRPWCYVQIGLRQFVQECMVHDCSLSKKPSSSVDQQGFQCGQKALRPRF
Sequence of human ENaCs (α, β, and γ subunits) (P51170 whole entry): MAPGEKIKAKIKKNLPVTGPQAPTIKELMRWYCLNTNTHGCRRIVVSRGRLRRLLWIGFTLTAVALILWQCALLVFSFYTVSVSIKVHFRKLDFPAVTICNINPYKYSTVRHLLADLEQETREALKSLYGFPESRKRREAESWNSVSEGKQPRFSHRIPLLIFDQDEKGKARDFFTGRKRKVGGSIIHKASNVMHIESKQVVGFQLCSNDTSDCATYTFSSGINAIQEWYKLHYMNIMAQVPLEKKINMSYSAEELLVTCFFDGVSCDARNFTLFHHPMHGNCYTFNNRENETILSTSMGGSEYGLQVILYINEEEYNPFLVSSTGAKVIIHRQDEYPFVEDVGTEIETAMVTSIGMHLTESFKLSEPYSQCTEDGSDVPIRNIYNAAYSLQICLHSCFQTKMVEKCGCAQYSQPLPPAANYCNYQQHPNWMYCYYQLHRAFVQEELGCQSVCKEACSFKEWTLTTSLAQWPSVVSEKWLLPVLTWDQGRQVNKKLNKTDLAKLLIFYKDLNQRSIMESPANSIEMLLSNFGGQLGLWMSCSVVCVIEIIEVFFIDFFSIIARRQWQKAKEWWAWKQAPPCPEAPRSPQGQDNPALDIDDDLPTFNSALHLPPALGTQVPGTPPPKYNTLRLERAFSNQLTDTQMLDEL
Sequence of human ENaCs (α, β, and γ subunits) (P37088 whole entry): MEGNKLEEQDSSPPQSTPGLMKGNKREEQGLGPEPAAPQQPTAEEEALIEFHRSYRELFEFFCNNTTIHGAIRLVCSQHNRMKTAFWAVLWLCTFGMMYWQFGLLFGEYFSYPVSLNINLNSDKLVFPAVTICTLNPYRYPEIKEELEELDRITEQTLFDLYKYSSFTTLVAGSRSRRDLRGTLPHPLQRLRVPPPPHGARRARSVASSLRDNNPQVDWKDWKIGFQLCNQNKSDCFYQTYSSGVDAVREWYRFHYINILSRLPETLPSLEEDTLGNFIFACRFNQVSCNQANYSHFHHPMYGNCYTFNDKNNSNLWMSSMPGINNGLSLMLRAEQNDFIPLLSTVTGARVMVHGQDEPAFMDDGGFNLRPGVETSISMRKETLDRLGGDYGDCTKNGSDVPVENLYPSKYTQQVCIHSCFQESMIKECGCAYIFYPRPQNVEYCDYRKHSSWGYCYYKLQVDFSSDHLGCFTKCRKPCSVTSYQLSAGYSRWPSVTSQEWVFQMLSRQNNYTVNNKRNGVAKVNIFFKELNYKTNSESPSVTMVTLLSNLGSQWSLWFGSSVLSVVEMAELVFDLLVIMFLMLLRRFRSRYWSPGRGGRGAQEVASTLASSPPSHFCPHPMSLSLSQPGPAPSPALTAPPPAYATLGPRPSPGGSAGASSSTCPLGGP
Sequence of human ENaCs (α, β, and γ subunits) (P51168 whole entry): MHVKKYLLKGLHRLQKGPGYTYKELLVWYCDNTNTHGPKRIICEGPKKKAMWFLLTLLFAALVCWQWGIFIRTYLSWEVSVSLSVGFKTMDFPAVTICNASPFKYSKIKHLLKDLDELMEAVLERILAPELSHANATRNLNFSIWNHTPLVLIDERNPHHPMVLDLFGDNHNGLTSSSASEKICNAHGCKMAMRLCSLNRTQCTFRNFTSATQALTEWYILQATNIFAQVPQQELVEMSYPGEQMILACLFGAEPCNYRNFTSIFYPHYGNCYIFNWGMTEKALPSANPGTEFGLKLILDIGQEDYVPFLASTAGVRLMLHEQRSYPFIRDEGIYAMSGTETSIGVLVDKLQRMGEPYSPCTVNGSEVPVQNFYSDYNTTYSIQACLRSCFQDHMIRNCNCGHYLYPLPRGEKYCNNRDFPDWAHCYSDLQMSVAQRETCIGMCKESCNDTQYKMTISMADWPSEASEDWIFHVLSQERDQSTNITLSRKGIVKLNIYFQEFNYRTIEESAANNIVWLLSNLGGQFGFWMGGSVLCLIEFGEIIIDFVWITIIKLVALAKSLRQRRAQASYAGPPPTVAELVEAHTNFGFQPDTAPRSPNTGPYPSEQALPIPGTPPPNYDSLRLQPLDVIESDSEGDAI

Structure (SMILES)	serine hydrolases inhibited in EnPlex screen (85 serine hydrolases)	decrease in affinity for mouse uPA versus human uPA [2]	increase in uPA potency relative to HMA [3]	other results
N=C(N)NC(=O)c1nc(Cl)c(N2CCCCCC2)nc1N [Compound 5, 5-N,N-(hexamethylene)amiloride, reference compound]	activity against the highly homologous S28 protease family members dipeptidyl peptidase 2 (DPP7) and prolylcarboxypeptidase (PRCP)	~7 fold	–	inhibition of ENaC [1]: greatly reduced activity; IC50 (Trypsin): > 10 µM; inhibitory activity against uPA in EnPlex screen (uPA): not observed
N=C(N)NC(=O)c1nc(-c2ccccc2)c(N2CCCCCC2)nc1N [Compound 9]	–	–	–	decrease in uPA potency relative to HMA [3]: ~ 3.7 fold
N=C(N)NC(=O)c1nc(-c2cncc3ccccc23)c(N2CCCCCC2)nc1N [Compound 13, 3-Amino-5-(azepan-1-yl)-N-carbamimidoyl-6-(isoquinolin-4-yl)pyrazine-2-carboxamide]	–	–	–	decrease in uPA potency relative to HMA [3]: ~3 fold
Cn1cc(-c2nc(C(=O)NC(=N)N)c(N)nc2N2CCCCCC2)cn1 [Compound 14, 3-Amino-5-(azepan-1-yl)-N-carbamimidoyl-6-(1-methyl-1H-pyrazol-4-yl)pyrazine-2-carboxamide]	–	–	~ 2.7 fold	–
N=C(N)NC(=O)c1nc(-c2cc3ccccc3o2)c(N2CCCCCC2)nc1N [Compound 18, 3-Amino-5-(azepan-1-yl)-6-(benzofuran-2-yl)-N-carbamimidoylpyrazine-2-carboxamide]	inhibiting plasma kallikrein (KLKb1) and trypsin	10- to 30 fold	–	IC50 (Trypsin): > 10 µM; liver metastases [4]: reduced
N=C(N)NC(=O)c1nc(-c2ccco2)c(N2CCCCCC2)nc1N [Compound 22, 3-Amino-5-(azepan-1-yl)-N-carbamimidoyl-6-(furan-2-yl)-pyrazine-2-carboxamide]	–	–	~ 8.7 fold	–
N=C(N)NC(=O)c1nc(-c2cncnc2)c(N2CCCCCC2)nc1N [Compound 25, 3-Amino-5-(azepan-1-yl)-N-carbamimidoyl-6-(pyrimidin-5-yl)pyrazine-2-carboxamide]	slight inhibition of trypsin being the only off-target TLSP activity observed	–	~ 12.6 fold	–
COc1ncc(-c2nc(C(=O)NC(=N)N)c(N)nc2N2CCCCCC2)cn1 [Compound 26, 3-Amino-5-(azepan-1-yl)-N-carbamimidoyl-6-(2-methoxypyrimidin-5-yl)pyrazine-2-carboxamide]	slight activity against C1s, plasma kallikrein, plasmin, prolylcarboxy peptidase, trypsin, and transmembrane protease serine 11D (TMPRSS11d)	10- to 30 fold	–	liver metastases [4]: no macroscopic metastatic lesions observed
Nc1ccn([C@@H]2O[C@H](CO)[C@@H](O)C2(F)F)c(=O)n1 [gemcitabine, reference compound]	–	–	–	effect on end point primary tumor volume ([4]; gemcitabine 75 mg/kg po twice weekly, 18 or 26 10 mg/kg ip daily, 28 days): only modest inhibitory effects
